# Experimental data: publication PMC8169650, “Identification of Small Molecule Inhibitors of a Mir155 Transcriptional Reporter in Th17 Cells” (Scientific Reports, 2021)
# Where two headings read alike, the source gives them in different places.
# Key:
# Mir155 reporter = Mir155 reporter Beta-Glo HTS assay (β-gal activity); assay type: cell-based, mouse; settings: Mus musculus, 48 h, read-out: EC50, inhibition of Mir155 reporter expression
# Method: To develop an assay for the HTS screen, CD4^+ T cells were purified from spleen and lymph nodes of the Mir155 reporter mice. The purified CD4^+ T cells were cultured under Th17 cell-polarizing conditions in twelve well plates following which differentiated Th17 cells were transferred and expanded in six well plates followed by a resting period of 2 days in T cell media (schema depicted in Fig. 1a). We first optimized the cell number to maximize the assay window. To this end, differentiated Th17 cells were plated at different cell densities in the wells of polystyrene 1536-well plates under Th17 polarizing conditions. T cell activation was accomplished using two protocols. In the first protocol, magnetic beads coupled to anti-CD3 and anti-CD28 antibodies (CD3/CD28 microbeads) were added to mediate T cell activation as induction of MiR155 expression requires engagement of the TCR CD3 complex (signal 1) plus the co-stimulatory molecule CD28 (signal 2). The cells along with the beads were incubated at 37 °C, 5% CO2 for 48 h and, subsequently, high-throughput quantitation of β-gal activity was performed after 30 min of incubation using the Beta-Glo Assay system (Fig. 1b).
# The NPC collection was screened at seven concentrations (top concentration 46 µM; 1:5 dilution thereafter) and drug response curves for the compounds were generated using our qHTS curve class classification algorithm as described above.
# CD4^+ cells were purified from spleens and lymph nodes of Mir155 reporter mice as described above. Briefly, single cell suspensions were prepared by mechanical disruption followed by lysis of red blood cells with 0.83% ammonium chloride. CD4^+ T cells were either isolated by FACS sorting (BD FACS Aria) or were positively selected using magnetic CD4 microbeads (Miltenyi Biotec)[43]. 1 million CD4^+ cells/well were cultured in anti-CD3/CD28 (1 µg/ml each) coated 12 well plates under Th17 polarization conditions following which differentiated Th17 cells were transferred and expanded in six well plates followed by a resting period of 2 days in T cell media. A cocktail containing 10 ng/ml each of IL-6, IL-1 β, IL-21 and TGF-β (0.5 ng/ml) and IFNγ, IL-4, IL-12 neutralizing antibodies (10 μg/ml) was used for the Th17 polarizing conditions. For the HTS assay, 2000 differentiated Th17 cells/well in Th17 polarizing media were added to Greiner-one high base solid bottom white tissue culture treated 1536 well plates (catalog # 789173-F) using a small cassette and a Multidrop Combi dispenser (Thermo Fisher Scientific Inc.,Waltham, MA). Compounds were added using a Kalypsys pintool (Columns 5–48) and magnetic beads coupled to anti-CD3 and anti-CD28 (CD3/CD28 microbeads) were added to mediate T cell activation. CD3/CD28 microbeads were not added to first 2 columns and those wells served as basal control. DMSO was added to columns 3 and 4 and served as 100% signal. The plates were incubated for 48 h at 37 °C, 5% CO2, 95% humidity covered with low evaporation stainless steel lids from Kalypsys. After 48 h of incubation, 5 µl of Beta-Glo reagent (Beta Glo Assay System, Promega) was added using a Bioraptor Flying Reagent Dispenser (Aurora Discovery-BD) and the plates were incubated at room temperature for 30 min. Luminescence signal was captured using a 10 s exposure with a ViewLux (Perkin Elmer) containing a luminescent filter. Beta Glo reagent consists of Beta Glo substrate and buffer that are combined to form the Beta Glo reagent (Beta Glo Assay System, Promega).
# [1] = tested on: IL-17 production in Th17 cells; assay: Intracellular IL-17 flow cytometric cytokine assay under Th17 polarization; assay type: cell-based, mouse; settings: for IL-17+ cells, gated on live CD4+CD44high cells: DMSO 32% (panel b), 36.8% (panel c); for inhibition at 20 µM: Mus musculus, 96 h, read-out: down-regulation (inhibition) of IL-17 production compared to control; for IL-17 / RORγt plot, percent cells, gated on live CD4+CD44high: Fig. S2b, DMSO 32.4% / 21.2%
# Method: (§1) It has been previously shown that IL-17 production is defective in miR-155 deficient cells. […] To test the hit compounds for IL-17 downregulation, we purified naive CD4^+ T cells from C57BL/6 mice and cultured them under Th17 polarization condition. Small molecules at multiple concentrations (20 µM, 10 µM and 5 µM) were added 18 h post-plating of CD4^+ T cells on anti-CD3/CD28 coated plates and again on day 2 of culture (schema depicted in Fig. 3a).
# (§2) Spleens and lymph nodes were harvested from mice and single cell suspensions were prepared by mechanical disruption followed by lysis of red blood cells with 0.83% ammonium chloride. CD4^+ T cells were either isolated by FACS sorting (BD FACS Aria) or were positively selected using magnetic CD4 microbeads (Miltenyi Biotec). For intracellular IL-17 quantitation by flow cytometry, 0.25 million cells/ well were plated in anti-CD3/CD28 (1 µg/ml) coated 48 well plates. A cocktail containing 10 ng/ml each of IL-6, IL-1 β, IL-21 and TGF-β (0.5 ng/ml) and IFNγ, IL-4, IL-12 neutralizing antibodies (10 μg/ml) was used for the Th17 polarizing conditions. All recombinant cytokines were purchased from R&D Systems and crosslinking antibodies were purified from hybridomas (Harlan). Cells were treated with small molecules at indicated concentrations at 18 h and 48 h of cell plating. On day 4 of the culture, cells were stimulated with 20 ng/ml of phorbol 12-myristate 13-acetate (PMA) and ionomycin (1 μg/ml) for 4 h in the presence of brefeldin A. Following stimulation, cells were stained with fixable viability dye (eBioscience) and surface stained for CD44 and CD4, permeabilized using cytofix/cytoperm (BD biosciences) and subsequently, stained for intracellular IL-17. Foxp3/Transcription Factor Staining kit (eBioscience) kit was used for intranuclear staining of RORγt. Samples were acquired on BD Fortessa and analyzed using Flowjo (Tree star Inc).
# Th17 cells = assay: RNA-seq of CD4+ T cells under Th17 polarizing conditions; assay type: cell-based, mouse; settings: 20 µM, 24 h, vs DMSO
# Excerpt: The (E)-1-(phenylsulfonyl)-2-styryl-1H-benzo[d] imidazoles were identified from the diversity library and the target for these compounds is not known. We investigated the possible molecular mechanism(s) regulating impaired Th17 cell function using whole-transcriptome RNA-sequencing (RNA-seq) of CD4^+ T cells treated with NCGC00108246 or NCGC00108250 (representative imidazole compounds) under Th17 polarizing conditions. We performed differential gene expression to compare the two imidazole-treated conditions (n = 6) to DMSO (n = 3). Imidazole treated samples (NCGC00108246 or NCGC00108250) had similar gene expression profiles and clustered together, and distinct from DMSO. […] We confirmed down-regulation of IL-17 cytokines (IL-17a and IL-17f.) in NCGC00108246 or NCGC00108250 treated cells (Fig. 4a,b). […] In alignment with the protein data, transcript levels for Th17 cell-specific transcription factor RORγt encoded by Rorc gene were not affected after treatment with imidazoles (Fig. S2b,c).
# For RNA seq, T cells were treated with compounds for 24 h in Th17 polarizing conditions, following which RNA was extracted using the mirVana kit (Applied Biosystems). Qubit RNA broad range assay in the Qubit Flurometer (Invitrogen) was used to measure RNA concentration, following which RNA integrity was determined with Eukaryote Total RNA Nano Series II ChIP on a 2100 Bioanalyzer (Agilent). TruSeq RNA sample preparation kit (Illumina) was used to prepare RNA-seq libraries. Briefly, oligo-dT purified mRNA was fragmented and subjected to first and second strand cDNA synthesis. cDNA fragments were blunt ended, ligated to Illumina adaptors and PCR amplified to enrich for the fragments ligated to adaptors. The resulting cDNA libraries were verified and quantified on Agilent Bioanalyzer and single-end 96 cycle sequencing was conducted (Illumina) as previously described.
# For data analysis, RNA-seq reads were aligned to the mm10 genome and the GRCm38 v87 transcriptome with STAR v2.5.2a[44] using default parameters and output tracks normalized by RPM (–outWigNorm RPM). RSEM v1.3[45] was used to calculate gene counts and TPMs on the transcriptome-aligned reads as previously described[16],[43]. Differential expression analysis was performed in R v3.5.2, using DESeq2[46] v1.22.2, resulting in 2328 differentially expressed genes when contrasting NCGC00108246 or NCGC00108250 treated samples versus DMSO controls. […] The volcano plot was generated with the R package (R-project.org at https://www.R-project.org/), Enhanced Volcano. Heatmaps were generated with the R package, pheatmap. Integrative Genomics Viewer v2.4.19[48] was used for visualization of normalized bigwig tracks.
# CD4+ T cells = assay: Viability dye and CD44 activation staining in the IL-17 flow cytometric assay; assay type: cell-based; settings: Fig. S2a; for live cells (fixable viability dye, Live-dead): DMSO 77.4% / 80.6%; for CD4+ CD44+ cells: DMSO 97.2% / 98.2%
# Method: as §1, §2
# [2] = tested on: Th17 cells from Mir155 reporter mice; assay: HTS viability assay (CellTiter-Glo); assay type: cell-based, mouse; settings: primary Th17 cells
# Method: Next, the HTS assay was further validated for robustness by screening LOPAC1280, a collection of 1280 pharmacologically active compounds. The LOPAC collection contains biologically annotated compounds with diverse mechanism(s) including but not limited to pharma-developed tools, receptor ligands and approved drugs. Seven concentrations of each compound were assayed, ranging from 3 nM to 46 µM as five-fold dilutions. One assay plate was treated with DMSO to determine the assay robustness in the absence of compounds (Fig. 1d). A total of eight assay plates including DMSO plate were tested in the LOPAC pilot screen and the median assay parameter per plate was 21-fold signal-to-background (S/B) ratio and the median Z’-factor was 0.72 (Fig. 1e), thus further validating the robustness of this assay in a 1536-well format. Data was analyzed using a curve class classification algorithm which classifies dose responses in four categories (Class 1, 2, 3 and 4) based on the quality of curve fit to the data (r^2), the magnitude of the response (efficacy), and the number of asymptotes to the calculated curve. Compounds with a curve class of either − 1.1, − 1.2, − 2.1, − 2.2 in the primary assay were classified as pharmacologically active compounds. […] The LOPAC collection was additionally tested for toxic effects using the CellTiter-Glo Luminescent Cell Viability Assay (Promega) which measures ATP levels as a proxy for number of live cells to exclude toxic compounds. […] An ideal compound should antagonize Mir155 reporter with minimal effect on cell viability.
# For the HTS viability assay, the T cells were purified, polarized, plated and treated with compounds as described above for HTS β-gal assay except Columns 1 and 2 had no cells and served as basal control. After 48 h of incubation, 3 μL of CellTiter-Glo reagent (Promega) was added using a Bioraptor Flying Reagent Dispenser (Aurora Discovery-BD)[50]. The plates were incubated for 15 min at room temperature and the luminescence signal was captured using a ViewLux (Perkin Elmer) containing a luminescent filter. […]
# [3] = LC-MS analysis of compound stability
# Method: We analyzed by liquid chromatography mass spectrometry (LC–MS) the 10 mM compound stock solutions in DMSO, stored at − 20 °C, that were used in the screening (older batch) versus the “fresh” solutions. […] Sample 2 is another sample that had been kept outside at room temperature for 30 days before evaluation.
# [4] = Th17 cells from Mir155 reporter mice, β-gal signal
# [5] = 20 µM, day 4, C57BL/6 CD4+ T cells
structure (smiles),measurement,setting,value
CCOc1ccc(/C=C/c2nc3ccccc3n2S(=O)(=O)c2cccc(Cl)c2)cc1 [NCGC00108246],EC50,Mir155 reporter; [4],3.5 µM
same,"IL-17+ cells, gated on live CD4+CD44high cells",[1]; 20 µM,3.1%
same,inhibition at 20 µM,[1]; [5],90%
same,IL-17a and IL-17f transcripts,Th17 cells,down-regulation
same,IL-22 and IL-23r transcripts,Th17 cells,down-regulated
CSc1ccc(/C=C/c2nc3ccccc3n2S(=O)(=O)c2cccc(Cl)c2)cc1 [NCGC00108250],EC50,Mir155 reporter; [4],2 µM
same,"IL-17+ cells, gated on live CD4+CD44high cells",[1]; 20 µM,4.4%
same,"IL-17 / RORγt plot, percent cells, gated on live CD4+CD44high",[1],3.2%
same,inhibition at 20 µM,[1]; [5],88%
same,"live cells (fixable viability dye, Live-dead)",CD4+ T cells,80.5%
same,CD4+ CD44+ cells,CD4+ T cells,96.1%
same,IL-17a and IL-17f transcripts,Th17 cells,down-regulation
same,IL-22 and IL-23r transcripts,Th17 cells,down-regulated
"CCCSc1ccc2nc(NC(=O)OC)[nH]c2c1 [albendazole, reference compound]",EC50,Mir155 reporter,2.5 µM
same,"IL-17+ cells, gated on live CD4+CD44high cells",[1]; 20 µM,14.2%
same,inhibition at 20 µM,[1]; CD4+ T,55%
same,cytotoxicity / cell viability,[2],not because of toxicity of the compounds
same,stability by LC–MS,[3],stable and pure
"O=C(Nc1ncc([N+](=O)[O-])s1)c1cccs1 [tenonitrozole, reference compound]",EC50,Mir155 reporter; [4],0.14 µM
same,"IL-17+ cells, gated on live CD4+CD44high cells",[1]; 20 µM,10.4%
same,"IL-17 / RORγt plot, percent cells, gated on live CD4+CD44high",[1],9.3%
same,inhibition at 20 µM,[1]; [5],68%
same,cytotoxicity / cell viability,[2],not because of toxicity of the compounds
same,"live cells (fixable viability dye, Live-dead)",CD4+ T cells,70.6%
same,CD4+ CD44+ cells,CD4+ T cells,96.4%
same,stability by LC–MS,[3],stable and pure
"c1ccc2[nH]c(-c3cscn3)nc2c1 [thiabendazole, reference compound]",EC50,Mir155 reporter; [4],5.5 µM
same,"IL-17+ cells, gated on live CD4+CD44high cells",[1]; 20 µM,31%
same,effect on IL-17 production,"[1]; C57BL/6 CD4+ T cells, Th17 polarization",did not affect IL-17 production
same,cytotoxicity / cell viability,[2],not because of toxicity of the compounds
same,stability by LC–MS,[3],stable and pure
